Measured values reported in paper PMC7901654, “Bioisosteric Discovery of NPA101.3, a Second-Generation RET/VEGFR2 Inhibitor Optimized for Single-Agent Polypharmacology” (Journal of Medicinal Chemistry, 2020).

Experiments:
[1] = tested on: CCDC6-RET, NCOA4-RET, and FGFR1OP-RET; test: RET phosphorylation Western blot in NIH3T3 cells, rearranged RET; type: cell-based; settings: 2 h
Protocol: Fibroblasts transfected with RET/C634R were treated with increasing doses of NPA101.3, ranging from 0.1 to 10.0 nM. RET autophosphorylation was assessed by Western blotting using two different antibodies that can recognize phosphorylated Y905, located in the RET kinase activation loop, or Y1062, a multidocking site involved in RET downstream signaling.[41]
Figure 4 NPA101.3-mediated inhibition of phosphorylation and signaling of oncogenic RET mutants and VEGFR2 in intact cells. Serum-starved RAT1 cells exogenously expressing the (A and B) indicated RET point mutants or (C) NIH3T3 cells exogenously expressing the indicated RET rearranged mutants were treated for 2 h with the indicated concentrations of the compound. Total cell lysates (50 μg) were subjected to immunoblotting with anti-phospho-Y1062 (αp1062) and anti-phospho-Y905 (αp905) RET antibodies. The blots were normalized using the anti-RET (αRET) antibody. (D) HEK293 cells were transiently transfected with human VEGFR2; 36 h after transfection, cells were serum starved for 12 h. The indicated doses of the compound or vehicle (NT) were added for 2 h, and then VEGFA (100 ng/mL) stimulation was applied for 15 min. […]
Protein lysates were prepared according to standard procedures. […] Immune complexes were detected with the enhanced chemiluminescence kit (Amersham Pharmacia Biotech, Little Chalfont, U.K.). […]

[2] = tested on: RET mutant TT, MZ-CRC-1, TPC-1, and Lc-2/ad human cancer cells; test: Cell growth curves, RET mutant human cancer cells taken together; type: cell-based; settings: range over TT, MZ-CRC-1, TPC-1, Lc-2/ad, read-out: IC50, proliferation of RET mutant human cancer cells
Protocol: The IC50 dose for all human RET-negative cells was >100.0 nM, confirming compound selectivity (Figure S8 and Table S4).
Nthy-ory-3-1 (10000 per well), TPC-1 (10000 per well), MZ-CRC-1 (100000 per well), TT (200000 per well), Lc-2/ad (100000 per well), BCPAP (10000 per well), 8505-C (10000 per well), PC-9 (10000 per well), A549 (10000 per well), CALU-1 (10000 per well), NIH3T3 RET/C634Y (10000 per well), and NIH3T3 HRAS/G12V (10000 per well) were seeded in six-well tissue culture plates. Cells were kept in 2% (TPC-1), 5% (Nthy-ori-3-1), or 10% (BCPAP, 8505-C, CALU-1, A549, PC-9, TT, MZ-CRC-1, and Lc-2/ad) fetal calf serum or in 2% (NIH3T3 RET/C634Y and HRAS/G12V) calf serum. Ba/F3 cells (200000 per well in 2 mL) were seeded in six-well tissue culture plates and kept in 10% fetal calf serum. The day after plating, different concentrations of the drug or vehicle were added to the medium and changed every 2–3 days. Cells were counted every day (Ba/F3), every 2 days (fibroblasts), or every 2–3 days (human cell lines). To compare cell growth, we performed an unpaired Student’s t test using the Instat software program (Graphpad Software Inc.). […] IC50 doses were calculated through a curve fitting analysis from last day of growth curves using the PRISM software program (Graphpad Software Inc.).

SMILES: CC(C)(C)c1cc(NC(=O)Cc2ccc(-n3cnc4cc(-c5ccc(S(C)(=O)=O)cc5)ccc43)cc2)no1 [NPA101.3]
- phosphorylation of rearranged RET oncoproteins [1]: highly sensitive
- IC50 [2]: 0.67 to 3.6 nM
